Reference: a compilation of properties of binary mixtures (doi:10.1016/j.molliq.2014.08.031)

Assay: xn = mol fraction of the nth substance listed
Settings: 101 kPa

CCCC[n+]1ccn(C)c1.CS(=O)(=O)[O-] + O
Settings | electrical conductivity [S/m] | viscosity [mPa·s]
298.15 K, x1 = 0.004 | 1.17 | –
298.15 K, x1 = 0.008 | 2.08 | –
298.15 K, x1 = 0.019 | 3.25 | –
298.15 K, x2 = 0.5596 | – | 50
298.15 K, x2 = 0.785 | 1.15 | –
298.15 K, x2 = 0.8016 | – | 13.45
298.15 K, x2 = 0.8521 | – | 8.87
298.15 K, x2 = 0.861 | 2.33 | –
298.15 K, x2 = 0.892 | 2.95 | –
298.15 K, x2 = 0.9004 | – | 5.45
298.15 K, x2 = 0.9254 | – | 4.05
298.15 K, x2 = 0.929 | 3.58 | –
298.15 K, x2 = 0.9503 | – | 2.73
298.15 K, x2 = 0.968 | 3.96 | –
299.15 K, x1 = 0.004 | 1.2 | –
299.15 K, x1 = 0.019 | 3.33 | –
299.15 K, x2 = 0.704 | 0.601 | –
299.15 K, x2 = 0.785 | 1.18 | –
299.15 K, x2 = 0.796 | 1.29 | –
299.15 K, x2 = 0.861 | 2.39 | –
299.15 K, x2 = 0.929 | 3.67 | –
299.15 K, x2 = 0.968 | 4.04 | –
300.15 K, x1 = 0.008 | 2.17 | –
300.15 K, x1 = 0.019 | 3.4 | –
300.15 K, x2 = 0.704 | 0.634 | –
300.15 K, x2 = 0.785 | 1.23 | –
300.15 K, x2 = 0.796 | 1.3 | –
300.15 K, x2 = 0.861 | 2.5 | –
300.15 K, x2 = 0.892 | 3.02 | –
300.15 K, x2 = 0.929 | 3.75 | –
300.15 K, x2 = 0.951 | 4.23 | –
300.15 K, x2 = 0.968 | 4.13 | –
301.15 K, x1 = 0.004 | 1.27 | –
301.15 K, x1 = 0.008 | 2.23 | –
301.15 K, x1 = 0.019 | 3.5 | –
301.15 K, x2 = 0.704 | 0.661 | –
301.15 K, x2 = 0.785 | 1.28 | –
301.15 K, x2 = 0.796 | 1.36 | –
301.15 K, x2 = 0.892 | 3.11 | –
301.15 K, x2 = 0.929 | 3.87 | –
301.15 K, x2 = 0.951 | 4.33 | –
301.15 K, x2 = 0.968 | 4.05 | –
302.15 K, x1 = 0.004 | 1.29 | –
302.15 K, x1 = 0.008 | 2.26 | –
302.15 K, x2 = 0.704 | 0.663 | –
302.15 K, x2 = 0.796 | 1.41 | –
302.15 K, x2 = 0.892 | 3.2 | –
302.15 K, x2 = 0.929 | 3.97 | –
302.15 K, x2 = 0.951 | 4.43 | –
302.15 K, x2 = 0.968 | 4.28 | –
303.15 K, x1 = 0.004 | 1.31 | –
303.15 K, x1 = 0.008 | 2.31 | –
303.15 K, x1 = 0.019 | 3.66 | –
303.15 K, x2 = 0.785 | 1.39 | –
303.15 K, x2 = 0.796 | 1.47 | –
303.15 K, x2 = 0.892 | 3.3 | –
303.15 K, x2 = 0.929 | 4.16 | –
303.15 K, x2 = 0.951 | 4.54 | –
303.15 K, x2 = 0.968 | 4.41 | –
304.15 K, x1 = 0.004 | 1.34 | –
304.15 K, x1 = 0.008 | 2.37 | –
304.15 K, x1 = 0.019 | 3.73 | –
304.15 K, x2 = 0.704 | 0.753 | –
304.15 K, x2 = 0.785 | 1.44 | –
304.15 K, x2 = 0.861 | 2.79 | –
304.15 K, x2 = 0.892 | 3.4 | –
304.15 K, x2 = 0.929 | 4.22 | –
304.15 K, x2 = 0.951 | 4.61 | –
304.15 K, x2 = 0.968 | 4.55 | –
305.15 K, x1 = 0.008 | 2.4 | –
305.15 K, x1 = 0.019 | 3.77 | –
305.15 K, x2 = 0.785 | 1.46 | –
305.15 K, x2 = 0.796 | 1.56 | –
305.15 K, x2 = 0.892 | 3.51 | –
305.15 K, x2 = 0.929 | 4.35 | –
305.15 K, x2 = 0.951 | 4.74 | –
305.15 K, x2 = 0.968 | 4.51 | –
306.15 K, x1 = 0.008 | 2.45 | –
306.15 K, x1 = 0.019 | 3.85 | –
306.15 K, x2 = 0.704 | 0.815 | –
306.15 K, x2 = 0.785 | 1.49 | –
306.15 K, x2 = 0.796 | 1.62 | –
306.15 K, x2 = 0.892 | 3.6 | –
306.15 K, x2 = 0.929 | 4.49 | –
306.15 K, x2 = 0.951 | 5.02 | –
306.15 K, x2 = 0.968 | 4.73 | –
307.15 K, x1 = 0.004 | 1.42 | –
307.15 K, x1 = 0.019 | 4.02 | –
307.15 K, x2 = 0.704 | 0.851 | –
307.15 K, x2 = 0.796 | 1.64 | –
307.15 K, x2 = 0.861 | 3.04 | –
307.15 K, x2 = 0.892 | 3.74 | –
307.15 K, x2 = 0.929 | 4.59 | –
307.15 K, x2 = 0.951 | 4.98 | –
307.15 K, x2 = 0.968 | 4.78 | –
308.15 K, x1 = 0.004 | 1.44 | –
308.15 K, x1 = 0.008 | 2.62 | –
308.15 K, x2 = 0.704 | 0.882 | –
308.15 K, x2 = 0.785 | 1.64 | –
308.15 K, x2 = 0.796 | 1.69 | –
308.15 K, x2 = 0.892 | 3.83 | –
308.15 K, x2 = 0.929 | 4.72 | –
308.15 K, x2 = 0.951 | 5.05 | –
309.15 K, x1 = 0.004 | 1.47 | –
309.15 K, x1 = 0.008 | 2.62 | –
309.15 K, x1 = 0.019 | 4.14 | –
309.15 K, x2 = 0.704 | 0.921 | –
309.15 K, x2 = 0.861 | 3.17 | –
309.15 K, x2 = 0.892 | 3.93 | –
309.15 K, x2 = 0.929 | 4.79 | –
309.15 K, x2 = 0.951 | 5.22 | –
310.15 K, x1 = 0.004 | 1.5 | –
310.15 K, x1 = 0.008 | 2.66 | –
310.15 K, x2 = 0.704 | 0.956 | –
310.15 K, x2 = 0.785 | 1.74 | –
310.15 K, x2 = 0.796 | 1.8 | –
310.15 K, x2 = 0.929 | 4.93 | –
310.15 K, x2 = 0.951 | 5.35 | –
311.15 K, x1 = 0.004 | 1.54 | –
311.15 K, x1 = 0.008 | 2.73 | –
311.15 K, x1 = 0.019 | 4.21 | –
311.15 K, x2 = 0.704 | 0.987 | –
311.15 K, x2 = 0.785 | 1.79 | –
311.15 K, x2 = 0.796 | 1.86 | –
311.15 K, x2 = 0.892 | 4.16 | –
311.15 K, x2 = 0.929 | 5.04 | –
311.15 K, x2 = 0.951 | 5.47 | –
311.15 K, x2 = 0.968 | 5.2 | –
312.15 K, x1 = 0.004 | 1.57 | –
312.15 K, x1 = 0.008 | 2.75 | –
312.15 K, x1 = 0.019 | 4.39 | –
312.15 K, x2 = 0.704 | 1.06 | –
312.15 K, x2 = 0.785 | 1.86 | –
312.15 K, x2 = 0.861 | 3.44 | –
312.15 K, x2 = 0.892 | 4.28 | –
312.15 K, x2 = 0.929 | 5.15 | –
312.15 K, x2 = 0.951 | 5.65 | –
312.15 K, x2 = 0.968 | 5.28 | –
313.15 K, x1 = 0.004 | 1.58 | –
313.15 K, x1 = 0.008 | 2.8 | –
313.15 K, x1 = 0.019 | 4.46 | –
